The source of these data is patent US5262417A, “Antibacterial quinolone compounds” (The Upjohn Company, priority 1991, dated 1993).

Molecules are shown by their SMILES. In brackets after ≈: the same amount, converted by molar mass. Like-named read-outs stand apart in the source and are kept apart here.

What all share (assay): Minimum inhibitory concentration (MIC) by agar dilution
Holding throughout (format): cell-based

In one experiment the test system is Pseudomonas aeruginosa. Conditions: Pseudomonas aeruginosa, 20 h. The method, then:
(§1) The antibacterial activity of the compounds of Formula IC was determined by using standard testing procedures such as the determination of minimum inhibitory concentration (MIC) by agar dilution as described in "Methods for Dilution Antimicrobial Susceptibility Tests for Bacteria That Grow Aerobically" (MFT) published January 1983 by the National Committee for Clinical Laboratory Standards, 771 East Lancaster Avenue, Villanova, Pa. 19084, USA. Briefly, MIC values are determined in unsupplemented Mueller Hinton Agar (MHA). The compounds tested are diluted serially into molten MHA at 47° C. The agar is poured into petri dishes and allowed to harden. The various bacteria used for testing are grown overnight on MHA at 35° C. and transferred to Trypticase soy broth (TSB) until a turbidity of 0.5 McFarland standard is obtained. The bacteria are diluted one to 20 in TSB and inoculated on the plates (1 μl using a Steers replicator).
as §1, with “Compounds of this invention can also be tested for in vitro antimicrobial” for “The antibacterial”, “activity” for “activity of the compounds of Formula IC was determined by”, “Jan.” for “January”, “Penna.” for “Pa.”, “(1μl” for “(1 μl”, “replicator). […] The MIC test results of selected of Formula B compounds of this invention are found in Tables B2-B9.” for “replicator).”

For another experiment, the system named is Serratia marcescens. Particulars: 20 h, read-out: MINIMUM INHIBITORY CONCENTRATION
The method, then: as §1
as §1, with “Compounds of this invention can also be tested for in vitro antimicrobial” for “The antibacterial”, “activity” for “activity of the compounds of Formula IC was determined by”, “Jan.” for “January”, “Penna.” for “Pa.”, “(1μl” for “(1 μl”, “replicator). […] The MIC test results of selected of Formula B compounds of this invention are found in Tables B2-B9.” for “replicator).”

In another experiment the test system is Citerobacter freundii. Particulars: 20 h, read-out: MINIMUM INHIBITORY CONCENTRATION
The method, then: as §1
as §1, with “Compounds of this invention can also be tested for in vitro antimicrobial” for “The antibacterial”, “activity” for “activity of the compounds of Formula IC was determined by”, “Jan.” for “January”, “Penna.” for “Pa.”, “(1μl” for “(1 μl”, “replicator). […] The MIC test results of selected of Formula B compounds of this invention are found in Tables B2-B9.” for “replicator).”

In the next experiment the test system is Streptococcus faecalis. Particulars: Enterococcus faecalis, 20 h, read-out: MINIMUM INHIBITORY CONCENTRATION
As to the method: as §1
as §1, with “Compounds of this invention can also be tested for in vitro antimicrobial” for “The antibacterial”, “activity” for “activity of the compounds of Formula IC was determined by”, “Jan.” for “January”, “Penna.” for “Pa.”, “(1μl” for “(1 μl”, “replicator). […] The MIC test results of selected of Formula B compounds of this invention are found in Tables B2-B9.” for “replicator).”

Another experiment relates to Streptococcus pneumoniae. Particulars: Streptococcus pneumoniae, 20 h, read-out: MINIMUM INHIBITORY CONCENTRATION, Cult No. 41, MHA. The method, then:
as §1
as §1, with “Compounds of this invention can also be tested for in vitro antimicrobial” for “The antibacterial”, “activity” for “activity of the compounds of Formula IC was determined by”, “Jan.” for “January”, “Penna.” for “Pa.”, “(1μl” for “(1 μl”, “replicator). […] The MIC test results of selected of Formula B compounds of this invention are found in Tables B2-B9.” for “replicator).”

Another experiment has as its system Klebsiella pneumoniae. Conditions: 20 h, read-out: MINIMUM INHIBITORY CONCENTRATION
The method, then:
as §1
as §1, with “Compounds of this invention can also be tested for in vitro antimicrobial” for “The antibacterial”, “activity” for “activity of the compounds of Formula IC was determined by”, “Jan.” for “January”, “Penna.” for “Pa.”, “(1μl” for “(1 μl”, “replicator). […] The MIC test results of selected of Formula B compounds of this invention are found in Tables B2-B9.” for “replicator).”

Another experiment has as its system Proteus penneri. Conditions: Proteus penneri, 20 h, read-out: MINIMUM INHIBITORY CONCENTRATION, Cult No. 9679, MHA. The method, then: as §1
as §1, with “Compounds of this invention can also be tested for in vitro antimicrobial” for “The antibacterial”, “activity” for “activity of the compounds of Formula IC was determined by”, “Jan.” for “January”, “Penna.” for “Pa.”, “(1μl” for “(1 μl”, “replicator). […] The MIC test results of selected of Formula B compounds of this invention are found in Tables B2-B9.” for “replicator).”

Another experiment relates to Staphylococcus aureus. Conditions: Staphylococcus aureus, 20 h. The method, then:
as §1
as §1, with “Compounds of this invention can also be tested for in vitro antimicrobial” for “The antibacterial”, “activity” for “activity of the compounds of Formula IC was determined by”, “Jan.” for “January”, “Penna.” for “Pa.”, “(1μl” for “(1 μl”, “replicator). […] The MIC test results of selected of Formula B compounds of this invention are found in Tables B2-B9.” for “replicator).”

A further experiment deals with Streptococcus pyogenes. Conditions: Streptococcus pyogenes, 20 h, read-out: MINIMUM INHIBITORY CONCENTRATION, Cult No. 152, MHA. The method, then:
as §1
as §1, with “Compounds of this invention can also be tested for in vitro antimicrobial” for “The antibacterial”, “activity” for “activity of the compounds of Formula IC was determined by”, “Jan.” for “January”, “Penna.” for “Pa.”, “(1μl” for “(1 μl”, “replicator). […] The MIC test results of selected of Formula B compounds of this invention are found in Tables B2-B9.” for “replicator).”

In experiment [1] the test system is Acinetobacter calcoaceticus. Conditions: Acinetobacter calcoaceticus, 20 h, read-out: MINIMUM INHIBITORY CONCENTRATION, Cult No. 12170, MHA. As to the method: as §1
as §1, with “Compounds of this invention can also be tested for in vitro antimicrobial” for “The antibacterial”, “activity” for “activity of the compounds of Formula IC was determined by”, “Jan.” for “January”, “Penna.” for “Pa.”, “(1μl” for “(1 μl”, “replicator). […] The MIC test results of selected of Formula B compounds of this invention are found in Tables B2-B9.” for “replicator).”

The subject of experiment [2] is Staphylococcus epidermidis. Particulars: 20 h, read-out: MINIMUM INHIBITORY CONCENTRATION
The method, then: as §1
as §1, with “Compounds of this invention can also be tested for in vitro antimicrobial” for “The antibacterial”, “activity” for “activity of the compounds of Formula IC was determined by”, “Jan.” for “January”, “Penna.” for “Pa.”, “(1μl” for “(1 μl”, “replicator). […] The MIC test results of selected of Formula B compounds of this invention are found in Tables B2-B9.” for “replicator).”

In a further experiment the test system is Escherichia coli. Particulars: Escherichia coli, 20 h. The method, then:
as §1
as §1, with “Compounds of this invention can also be tested for in vitro antimicrobial” for “The antibacterial”, “activity” for “activity of the compounds of Formula IC was determined by”, “Jan.” for “January”, “Penna.” for “Pa.”, “(1μl” for “(1 μl”, “replicator). […] The MIC test results of selected of Formula B compounds of this invention are found in Tables B2-B9.” for “replicator).”

A further experiment deals with Enterobacter cloacae. Conditions: 20 h, read-out: MINIMUM INHIBITORY CONCENTRATION
The method, then:
Briefly, MIC values are determined in unsupplemented Mueller Hinton Agar (MHA). The compounds tested are diluted serially into molten MHA at 47° C. The agar is poured into petri dishes and allowed to harden. The various bacteria used for testing are grown overnight on MHA at 35° C. and transferred to Trypticase soy broth (TSB) until a turbidity of 0.5 McFarland standard is obtained. The bacteria are diluted one to 20 in TSB and inoculated on the plates (1 μl using a Steers replicator).
as §1, with “Compounds of this invention can also be tested for in vitro antimicrobial” for “The antibacterial”, “activity” for “activity of the compounds of Formula IC was determined by”, “Jan. […]” for “January 1983 by the National Committee for Clinical Laboratory Standards, 771 East Lancaster Avenue, Villanova, Pa. 19084, USA.”, “(1μl” for “(1 μl”

The mark [3] stands for this setting: read-out: MINIMUM INHIBITORY CONCENTRATION, Cult No. 6676, MHA.
[4] abbreviates: read-out: MINIMUM INHIBITORY CONCENTRATION, Cult No. 9191, MHA.
Setting [5] is: read-out: MINIMUM INHIBITORY CONCENTRATION, Cult No. 12120, MHA.
Where [6] appears, read: read-out: MINIMUM INHIBITORY CONCENTRATION, Cult No. 6685, MHA.
[7] abbreviates: read-out: MINIMUM INHIBITORY CONCENTRATION, Cult No. 9213, MHA.
Where [8] appears, read: read-out: MINIMUM INHIBITORY CONCENTRATION, Cult No. 9218, MHA.
[9] abbreviates: read-out: MINIMUM INHIBITORY CONCENTRATION, Cult No. 9271, MHA.
The mark [10] stands for this setting: read-out: MINIMUM INHIBITORY CONCENTRATION, Cult No. 6674, MHA.
[11] abbreviates: read-out: MINIMUM INHIBITORY CONCENTRATION, Cult No. 9451, MHA.
Setting [12] is: read-out: MINIMUM INHIBITORY CONCENTRATION, Cult No. 9855, MHA.
The mark [13] stands for this setting: read-out: MINIMUM INHIBITORY CONCENTRATION, Cult No. 9952, MHA.

As for `O=C(O)c1cn(C23CC(C2)C3)c2cc(N3CCNCC3)c(F)cc2c1=O` [No. 2, 1-(bicyclo[1.1.1]pent-1-yl)-1,4-dihydro-6-fluoro-4-oxo-7-(1-piperazinyl)-3-quinolinecarboxylic acid], the MIC is 4 µg/mL (≈ 11.2 µM) in the experiment with Pseudomonas aeruginosa (setting [3]); 2 µg/mL (≈ 5.6 µM) with Pseudomonas aeruginosa (setting [4]); 1 µg/mL (≈ 2.8 µM) with Pseudomonas aeruginosa (setting [5]); 0.5 µg/mL (≈ 1.4 µM) with Serratia marcescens; 0.06 µg/mL (≈ 0.168 µM) in the experiment on Citerobacter freundii; 4 µg/mL (≈ 11.2 µM) in the experiment with Streptococcus faecalis. Moreover, the MIC in the experiment on Streptococcus pneumoniae was 4 µg/mL (≈ 11.2 µM); in the experiment with Klebsiella pneumoniae it was 0.25 µg/mL (≈ 0.7 µM); in the experiment on Proteus penneri, 0.5 µg/mL (≈ 1.4 µM); with Staphylococcus aureus (setting [6]), 0.5 µg/mL (≈ 1.4 µM); in the experiment with Staphylococcus aureus (setting [7]) it was 1 µg/mL (≈ 2.8 µM); with Staphylococcus aureus (setting [8]), 1 µg/mL (≈ 2.8 µM). In addition, the MIC in the experiment on Staphylococcus aureus (setting [9]) is 1 µg/mL (≈ 2.8 µM); in the experiment with Streptococcus pyogenes it was 2 µg/mL (≈ 5.6 µM); in [1] it was 0.5 µg/mL (≈ 1.4 µM); in [2], 0.5 µg/mL (≈ 1.4 µM); with Escherichia coli (setting [10]) it was 0.125 µg/mL (≈ 0.35 µM); in the experiment with Escherichia coli (setting [11]), 0.125 µg/mL (≈ 0.35 µM). For the same molecule, the MIC with Escherichia coli (setting [12]), with Escherichia coli (setting [13]) and in the experiment with Enterobacter cloacae was 0.125 µg/mL (≈ 0.35 µM) each time.
With `O=C(O)c1cn(C23CC(C2)C3)c2c(F)c(N3CCC(O)C3)c(F)cc2c1=O` (stereo not drawn) [No. 3, 7-(3-hydroxy-1-pyrrolidinyl)-1-(bicyclo[1.1.1]pent-1-yl)-1,4-dihydro-6,8-difluoro-4-oxo-3-quinolinecarboxylic acid], the MIC was determined as 2 µg/mL (≈ 5.31 µM) with Pseudomonas aeruginosa (setting [3]); 2 µg/mL (≈ 5.31 µM) in the experiment on Pseudomonas aeruginosa (setting [4]); 1 µg/mL (≈ 2.66 µM) in the experiment on Pseudomonas aeruginosa (setting [5]); 1 µg/mL (≈ 2.66 µM) with Serratia marcescens; 0.25 µg/mL (≈ 0.664 µM) in the experiment with Citerobacter freundii; 1 µg/mL (≈ 2.66 µM) in the experiment on Streptococcus faecalis. Besides, the MIC stood at 1 µg/mL (≈ 2.66 µM) with Streptococcus pneumoniae; 0.5 µg/mL (≈ 1.33 µM) in the experiment with Klebsiella pneumoniae; 0.5 µg/mL (≈ 1.33 µM) in the experiment on Proteus penneri; 0.06 µg/mL (≈ 0.159 µM) in the experiment with Staphylococcus aureus (setting [6]); 0.125 µg/mL (≈ 0.332 µM) in the experiment with Staphylococcus aureus (setting [7]); 0.125 µg/mL (≈ 0.332 µM) with Staphylococcus aureus (setting [8]). For the same molecule, the MIC in the experiment with Staphylococcus aureus (setting [9]) was 0.125 µg/mL (≈ 0.332 µM); in the experiment on Streptococcus pyogenes, 2 µg/mL (≈ 5.31 µM); in experiment [1] it was 0.25 µg/mL (≈ 0.664 µM); in experiment [2], 0.125 µg/mL (≈ 0.332 µM); in the experiment on Escherichia coli (setting [10]), 0.25 µg/mL (≈ 0.664 µM); with Escherichia coli (setting [11]), 0.25 µg/mL (≈ 0.664 µM). Moreover, the MIC with Escherichia coli (setting [12]) was 0.25 µg/mL (≈ 0.664 µM); with Escherichia coli (setting [13]), 0.125 µg/mL (≈ 0.332 µM); in the experiment with Enterobacter cloacae it was 0.25 µg/mL (≈ 0.664 µM).
